The values below come from US9102667B2, “N-arylaminomethylene benzothiophenones for treatment of cardiovascular disease” (FORSCHUNGSVERBUND BERLIN E.V., priority 2011, dated 2015).

Bounds are passed on as bounds.

Chain of AKAP-PKA interaction (P13861 2-404 limits assumed): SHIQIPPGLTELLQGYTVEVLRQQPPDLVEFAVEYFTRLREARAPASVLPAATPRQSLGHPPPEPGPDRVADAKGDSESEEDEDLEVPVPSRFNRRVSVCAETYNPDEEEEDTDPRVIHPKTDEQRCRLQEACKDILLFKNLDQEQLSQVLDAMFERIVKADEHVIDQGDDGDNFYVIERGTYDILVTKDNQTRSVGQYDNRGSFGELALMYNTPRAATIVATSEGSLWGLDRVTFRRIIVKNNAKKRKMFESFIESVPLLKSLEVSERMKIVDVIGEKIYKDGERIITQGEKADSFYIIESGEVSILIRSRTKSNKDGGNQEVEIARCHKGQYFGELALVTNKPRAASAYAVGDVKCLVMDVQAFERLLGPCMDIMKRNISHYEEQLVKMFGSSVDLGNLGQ

The first assay deals with AKAP-PKA interaction (Homo sapiens, UniProt P13861). Description: AKAP-PKA interaction (disruption) assays of Examples 1-3: alpha screen, surface plasmon resonance, ELISA (combined classification). The class given is binding. The conditions noted are these: absolute values stated in structure-activity text; method not specified; read-out: IC50. The protocol: The inhibition of the interaction of the alpha RII subunit of protein kinase A with AKAP18-alpha by the compounds according to the invention is determined as follows:
The experiment measures the suitability of candidate compounds for the inhibition of the interaction between AKAP and PKA. An AKAP-GST fusion construct is immobilized on glutathione donor beads and His-RII-alpha on Ni-chelate acceptor beads. To the extent that the partners interact, singlet oxygen from the donor beads becomes free and activates the fluorescence emission of the acceptor beads. The fluorescence emission determined in the microplate reader is proportional to the intensity of interaction of the protein partners. The IC50 is determined from the results of the measurement of several concentrations of one candidate compound.
The details of the process were as follows: Two protein Solutions A and B are produced in a buffer (phosphate NaCl buffer, 0.1% polysorbate 80, 0.1% [=1 mg/ml BSA]). These contain (A) the histidine-6-tagged fusion construct RII-alpha-His (3.125 nmol/l) and (B) the glutathione-S-transferase-tagged fusion construct GST-AKAP18-alpha-d2-10 (6.25 nmol/l). One volume unit each of protein solution and bead suspension are incorporated, specifically Solution A of the His6-tagged protein with Ni-chelate bead suspension and Solution B of the GST-fusion protein with glutathione beads (Perkin Elmer Product No. 6765302), and in doing so the concentrations are selected according to the manufacturers information. The Mixtures A and B obtained are incubated for one hour at room temperature (RT) in the dark.
Then, 5 μl of Mixture A is laid out for each hole on a 384-hole microtiter plate, and then to start with 0.5 μl of a solution of the candidate compound in DMSO is added and then 5 μl of Mixture B. The resulting reaction mixture is incubated 1 h at RT in the dark. Then, the reaction is tempered to 28.5° C., and the emitter intensity of the acceptor is determined in a microtiter plate reader after excitation of the donor at 680 nm.
The relative inhibition of the AKAP-PKA interaction is calculated following the formula: 1−(xc−y)/(z−y) where: X=average of readings (n=3) at concentration c; Y=average of measurement data from bead-bead check (n=6); Z=average of measurement data from protein-protein check (n=6). Results:
Surface plasmon resonance analyses for competition in solution were performed with streptavidin-coated sensor chips (GE Healthcare, Uppsala, Sweden). The N-terminal biotinylated peptide AKAP18d-L314E was used, which is a variant of the RH-binding domains of AKAP18δ (Hundsrucker et al., Biochem. J. 396, 297-306, [2006]). The binding of the regulatory subunit of the human PKAII-α or RII-β onto the peptide surface of the AKAP18δ-L314E, or the inhibition of this binding to RII by the compounds of the invention, was measured on a Biacaore 3000 machine (Biacore/GE Healthcare) as previously described (Henn et al., J Biol Chem 279, 26654-26665 [2004]). The compounds were injected for 60 sec at a flow rate of 30 μl/min, and the dissociation phase was measured for 180 sec.
Multititer plates (Corning B.V. Life Sciences, Schiphol-Rijk, Netherlands) were coated with recombinantly produced PKA RIIα (15 ng/hole) by incubation with phosphate buffer containing protease inhibitors (1 h, 22° C.). The plate was then blocked with lactoprotein.
GST-AKA7δ (Hundsrucker et al., Biochem. J. 396, 297-306, [2006]; 15 ng/well) was incubated with and without candidate compounds on the plate for 1 h at 22° C. After washing, it was incubated with antibodies (rabbit) against AKA7δ (A18δ3) and then with a peroxidase-conjugated antirabbit antibody and developed with dye substrate (LumiLight Western Blotting Substrate, Roche Diagnostics, Mannheim, Germany). Luminescence activity was determined in a microplate reader (GeniosPro, Tecan, Durham, N.C., United States) at 10 msec integration.
For `O=C1/C(=C/Nc2ncc[nH]2)Sc2ccccc21` [T2/1, (2Z)-2-[(1H-imidazole-2-ylamino)methylene]benzothiophene-3-one], the IC50 was approximately 80 µM.

`O=C1/C(=C/Nc2nccs2)Sc2ccccc21` [T2/6, (2Z)-2-[(thiazole-2-ylamino)methylene]benzothiophene-3-one]: the IC50 was approximately 80 µM.

With `O=C1/C(=C/Nc2ncc([N+](=O)[O-])s2)Sc2ccccc21` [T2/12, (2Z)-2-[[(5-nitrothiazole-2-yl)amino]methylene]benzothiophene-3-one], the IC50 fell in the range of 1 to 5 µM.

Staying with this assay, now noted: alkyl substituent on heteroaromatic pentacycle.
For the compound `Cc1csc(N/C=C2\Sc3ccccc3C2=O)n1` [T2/10, (2Z)-2-[[(4-methylthiazole-2-yl)amino]methylene]benzothiophene-3-one], the “IC50 relative to that of the unsubstituted mother compound” value was “about 50%”.

Staying with this assay, now noted: assays of Examples 1-3.
For `O=C1/C(=C\Nc2cccc3ccccc23)Sc2ccccc21` [T2/39, (2e)-2-[(1-naphthylamino)methylene]benzothiophene-3-one], the “Activity in AKAP-PKA interaction assays (in words)” value was “barely detectable activity”.

The same assay, now with this note: class from IC50 values in assays of Examples 1, 2 or 3.
Regarding `COC(=O)c1cnc(N/C=C2\Sc3ccccc3C2=O)s1` [T2/17, 2-[[(z)-(3-oxobenzothiophene-2-ylidene)methyl]amino]thiazole-5-carboxylic acid methylester], the “Activity (IC50 class)” value is 2-[[(z)-(3-oxobenzothiophene-2-ylidene)methyl]amino]thiazole-5-carboxylic acid methylester Activity: A(A).

In the case of `N=C(N)c1cnc(N/C=C2\Sc3ccccc3C2=O)s1` [T2/21, 2-[[(Z)-(3-oxobenzothiophen-2-ylidene)methyl]amino]thiazole-5-carboxamidine], the “Activity (IC50 class)” value is 2-[[(Z)-(3-oxobenzothiophen-2-ylidene)methyl]amino]thiazole-5-carboxamidine Activity: A/B.

On to `O=C1/C(=C/Nc2nc3ccccc3s2)Sc2ccccc21` [T2/23, (2Z)-2-[(1,3-benzothiazol-2-ylamino)methylene]-benzothiophen-3-one], for which the “Activity (IC50 class)” value is “(2Z)-2-[(1,3-benzothiazol-2-ylamino)methylene]- benzothiophen-3-one Activity A/B”.

Still in this assay, the particulars now being: class from IC50 values in assays of Examples 1, 2 or 3; read-out: Activity (IC50 class).
For `O=C1/C(=C/Nc2ncc[nH]2)Sc2ccccc21` [T2/1, (2Z)-2-[(1H-imidazole-2-ylamino)methylene]benzothiophene-3-one], the IC50 was less than 150 µM.

In the case of `O=C1/C(=C/Nc2nc3ccccc3[nH]2)Sc2ccccc21` [T2/2, (2Z)-2-[(1H-benzimidazole-2-ylamino)methylene]benzothiophene-3-one], the IC50 was less than 150 µM.

Regarding `Cn1c(N/C=C2\Sc3ccccc3C2=O)nc2ccccc21` [T2/3, (2Z)-2-[[(1-methylbenzimidazole-2-yl)amino]methylene]benzothiophene-3-one], the IC50 is less than 150 µM.

As to `Cc1coc(N/C=C2\Sc3ccccc3C2=O)n1` [T2/4, (2Z)-2-[[(4-methyloxazole-2-yl)amino]methylene]benzothiophene-3-one], the IC50 was less than 50 µM.

As for `O=C1/C(=C/Nc2nc3cc(Cl)ccc3o2)Sc2ccccc21` [T2/5, (2Z)-2-[[(5-chloro-1,3-benzoxazole-2-yl)amino]methylene]benzothiophene-3-one], the IC50 was in the range of 250 to 750 µM.

On to `O=C1/C(=C/Nc2nccs2)Sc2ccccc21` [T2/6, (2Z)-2-[(thiazole-2-ylamino)methylene]benzothiophene-3-one], for which the IC50 is less than 150 µM.

Consider `O=C1/C(=C/Nc2ncc([N+](=O)[O-])s2)Sc2ccccc21` [T2/12, (2Z)-2-[[(5-nitrothiazole-2-yl)amino]methylene]benzothiophene-3-one], for which the IC50 is less than 25 µM.

As to `O=C1/C(=C/Nc2ncc(Br)s2)Sc2ccccc21` [T2/13, (2Z)-2-[[(5-bromothiazole-2-yl)amino]methylene]benzothiophene-3-one], the IC50 is less than 50 µM.

In the case of `O=C1/C(=C/Nc2ncc(Cl)s2)Sc2ccccc21` [T2/14, (2Z)-2-[[(5-chlorothiazole-2-yl)amino]methylene]benzothiophene-3-one], the IC50 is less than 150 µM.

On to `O=C(O)c1cnc(N/C=C2\Sc3ccccc3C2=O)s1` [T2/16, 2-[[(z)-(3-oxobenzothiophene-2-ylidene)methyl]amino]thiazole-5-carboxylic acid], for which the IC50 is less than 250 µM.

For `COC(=O)c1csc(N/C=C2\Sc3ccccc3C2=O)n1` [T2/18, 2-[[(z)-(3-oxobenzothiophene-2-ylidene)methyl]amino]thiazole-4-carboxylic acid methylester], the IC50 was less than 150 µM.

For the compound `NC(=O)c1cnc(N/C=C2\Sc3ccccc3C2=O)s1` [T2/19, 2-[[(z)-(3-oxobenzothiophene-2-ylidene)methyl]amino]thiazole-5-carboxylic acid amide], the IC50 was less than 150 µM.

In the case of `CNC(=O)c1cnc(N/C=C2\Sc3ccccc3C2=O)s1` [T2/20, n-methyl-2-[[(z)-(3-oxobenzothiophene-2-ylidene)methyl]amino]thiazole-5-carboxylic acid amide], the IC50 was less than 250 µM.

For the compound `COc1ccc2nc(N/C=C3\Sc4ccccc4C3=O)sc2c1` [T2/24, (2Z)-2-[[(6-methoxy-1,3-benzothiazole-2-yl)amino]methylene]benzothiophene-3-one], the IC50 is less than 150 µM.

`O=C1/C(=C/Nc2nc3ccc([N+](=O)[O-])cc3s2)Sc2ccccc21` [T2/25, (2Z)-2-[[(6-nitro-1,3-benzothiazole-2-yl)amino]methylene]benzothiophene-3-one]: the IC50 was less than 250 µM.

As for `O=C1/C(=C/Nc2nc3c(F)cc(F)cc3s2)Sc2ccccc21` [T2/26, (2Z)-2-[[(4,6-difluoro-1,3-benzothiazole-2-yl)amino]methylene]benzothiophene-3-one], the IC50 is 250 to 750 µM.

For the compound `O=C1/C(=C/Nc2nc3ccc(C(F)(F)F)cc3s2)Sc2ccccc21` [T2/27, (2Z)-2-[[[6-(trifluoromethyl)-1,3-benzothiazole-2-yl]amino]methylene]benzothiophene-3-one], the IC50 was 250 to 750 µM.

As to `O=C1/C(=C/Nc2nc3ccc(Br)cc3s2)Sc2ccccc21` [T2/28, (2Z)-2-[[(6-bromo-1,3-benzothiazole-2-yl)amino]methylene]benzothiophene-3-one], the IC50 was less than 150 µM.

As to `O=C1/C(=C/Nc2ccc3scnc3c2)Sc2ccccc21` [T2/29, (2Z)-2-[(1,3-benzothiazole-5-ylamino)methylene]benzothiophene-3-one], the IC50 fell in the range of 250 to 750 µM.

For the compound `O=C1/C(=C/Nc2ncns2)Sc2ccccc21` [T2/30, (2Z)-2-[(1,2,4-thiadiazol-5-ylamino)methylene]benzothiophene-3-one], the IC50 was less than 150 µM.

As to `O=C1/C(=C/Nc2nncs2)Sc2ccccc21` [T2/31, (2Z)-2-[(1,3,4-thiadiazol-2-ylamino)methylene]benzothiophene-3-one], the concentration for half-maximal inhibition (IC50) is less than 150 µM.

Consider `O=C1/C(=C/Nc2nnc(Br)s2)Sc2ccccc21` [T2/32, (2Z)-2-[[(5-bromo-1,3,4-thiadiazol-2-yl)amino]methylene]benzothiophene-3-one], for which the half-maximal inhibitory concentration (IC50) is less than 150 µM.

With `O=C1/C(=C/Nc2ccccc2[N+](=O)[O-])Sc2ccccc21` [T2/33, (2Z)-2-[(2-nitroanilino)methylene]benzothiophene-3-one], the IC50 is less than 150 µM.

On to `O=C1/C(=C\Nc2ccc([N+](=O)[O-])cc2)Sc2ccccc21` [T2/34, (2e)-2-[(4-nitroanilino)methylene]benzothiophene-3-one], for which the IC50 lay within 250 to 750 µM.

As for `O=C1/C(=C/Nc2cc([N+](=O)[O-])ccc2O)Sc2ccccc21` [T2/35, (2Z)-2-[(2-hydroxy-5-nitro-anilino)methylene]benzothiophene-3-one], the IC50 lay in the range of 250 to 750 µM.

On to `O=C1/C(=C/Nc2cccc(Br)c2)Sc2ccccc21` [T2/37, (2Z)-2-[(3-bromoanilino)methylene]benzothiophene-3-one], for which the IC50 lay within 250 to 750 µM.

As to `O=C1/C(=C\Nc2cccc3ccccc23)Sc2ccccc21` [T2/39, (2e)-2-[(1-naphthylamino)methylene]benzothiophene-3-one], the IC50 lay within 250 to 750 µM.

Consider `O=C1/C(=C/Nc2ncc3ccccc3n2)Sc2ccccc21` [T2/42, (2Z)-2-[(chinazolin-2-ylamino)methylene]benzothiophene-3-one], for which the IC50 fell in the range of 250 to 750 µM.

Consider `O=C1/C(=C/Nc2ncccn2)Sc2ccccc21` [T2/49, (2Z)-2-[(pyrimidine-2-ylamino)methylene]benzothiophene-3-one], for which the IC50 was less than 250 µM.
